Experiments:
eye [1] = test: Eye irritation test (Draize method, evaluated by method of Kay and Calandra); assay type: in vivo, male Japanese rabbit; set-up: key: Draize irritation scores per Kay–Calandra method, mean of 4 rabbits
Protocol: The irritation to the eyes caused by relatively highly concentrated solutions of the compounds of the invention was determined by the Draize method [J. H. Draize et al. J. Pharmacol. Exp. Ther., 82, 377 (1944)] and evaluated by the method of Kay and Calandra [J. H. Kay and J. C. Calandra, J. Soc. Cosmet. Chem., 13, 281 (1962)].
The test solution employed in the present experiment was a simple solution of 10% or 20% by weight of the test compound dissolved in distilled water for injections and adjusted to pH 7 to 8 as required.
Specifically, a male Japanese rabbit of body weight 2.5-3.0 kg was placed in a pillory to fix its head. A single dose of 0.1 ml of the test solution was instilled into its right eye. The symptoms experienced by the anterior portion of the right eye were observed over a period of seven days and the irritation observed was scored. The results are shown in Table 2, in each case averaged over the four rabbits in each test group.

[2] = Acute toxicity, oral administration; set-up: species or system RFVL type mice; details: mouse, in vivo
eye [3] = details: cited from earlier work
[4] = result in words; cited from earlier work

Row | Compound | Average irritation score, average (eye [1]; 10% solution, 0.1 ml, 1 hour) | Average irritation score, conjunctiva (eye [1]; 10% solution, 0.1 ml, 1 hour) | Average irritation score, cornea (eye [1]; 10% solution, 0.1 ml, 1 hour) | Average irritation score, iris (eye [1]; 10% solution, 0.1 ml, 1 hour) | Average irritation score, average (eye [1]; 10% solution, 0.1 ml, 24 hours) | Average irritation score, conjunctiva (eye [1]; 10% solution, 0.1 ml, 24 hours) | Average irritation score, cornea (eye [1]; 10% solution, 0.1 ml, 24 hours) | Average irritation score, iris (eye [1]; 10% solution, 0.1 ml, 24 hours) | Average irritation score, average (eye [1]; 10% solution, 0.1 ml, 48 hours) | Average irritation score, conjunctiva (eye [1]; 10% solution, 0.1 ml, 48 hours) | Average irritation score, cornea (eye [1]; 10% solution, 0.1 ml, 48 hours) | Average irritation score, iris (eye [1]; 10% solution, 0.1 ml, 48 hours) | Average irritation score, average (eye [1]; 10% solution, 0.1 ml, 72 hours) | Average irritation score, conjunctiva (eye [1]; 10% solution, 0.1 ml, 72 hours) | Average irritation score, cornea (eye [1]; 10% solution, 0.1 ml, 72 hours) | Average irritation score, iris (eye [1]; 10% solution, 0.1 ml, 72 hours) | Average irritation score, average (eye [1]; 10% solution, 0.1 ml, 96 hours) | Average irritation score, conjunctiva (eye [1]; 10% solution, 0.1 ml, 96 hours) | Average irritation score, cornea (eye [1]; 10% solution, 0.1 ml, 96 hours) | Average irritation score, iris (eye [1]; 10% solution, 0.1 ml, 96 hours) | also measured
1 | CC(C(=O)[O-])c1ccc(CC2CCCC2=O)cc1.[Na+] (stereo not shown) | – | – | – | – | – | – | – | – | – | – | – | – | – | – | – | – | – | – | – | – | Average irritation score, cornea (eye [1]; rabbit, in vivo): 0; Average irritation score, iris (eye [1]; rabbit, in vivo): 0; LD50 ([2]; female mice): 3150 mg/kg; LD50 ([2]; male mice): 3030 mg/kg
2 | CC(C(=O)[O-])c1ccc(C[C@@H]2CCC[C@H]2O)cc1.[Na+] (relative stereo) | 1.3 | 1.3 | 0 | 0 | 0 | 0 | 0 | 0 | 0 | 0 | 0 | 0 | 0 | 0 | 0 | 0 | 0 | 0 | 0 | 0 | Average irritation score, average (eye [1]; 10% solution, 0.1 ml, 7 days): 0; Average irritation score, conjunctiva (eye [1]; 10% solution, 0.1 ml, 7 days): 0; Average irritation score, cornea (eye [1]; 10% solution, 0.1 ml, 7 days): 0; Average irritation score, iris (eye [1]; 10% solution, 0.1 ml, 7 days): 0
3 | CC(C(=O)[O-])c1ccc(C=C2CCCCC2=O)cc1.[Na+] (stereo not shown) [Compound B, sodium 2-[4-(2-oxocyclohexylidenemethyl)phenyl]propionate] | 1.3 | 1.3 | 0 | 0 | 0 | 0 | 0 | 0 | 0 | 0 | 0 | 0 | 0 | 0 | 0 | 0 | 0 | 0 | 0 | 0 | Average irritation score, average (eye [1]; 10% solution, 0.1 ml, 7 days): 0; Average irritation score, conjunctiva (eye [1]; 10% solution, 0.1 ml, 7 days): 0; Average irritation score, cornea (eye [1]; 10% solution, 0.1 ml, 7 days): 0; Average irritation score, iris (eye [1]; 10% solution, 0.1 ml, 7 days): 0
4 | CC(C)Cc1ccc(C(C)C(=O)O)cc1 (stereo not shown) [Ibuprofen, ibuprofen] | – | – | – | – | – | – | – | – | – | – | – | – | – | – | – | – | – | – | – | – | adverse effects upon the eye reported in the literature (eye [3]): a variety of visual defects, including toxic amblyopia
5 | COC(=O)c1ccccc1O [methyl salicylate] | – | – | – | – | – | – | – | – | – | – | – | – | – | – | – | – | – | – | – | – | toxicity for internal administration [4]: too toxic for internal administration
6 | CCCCC1C(=O)N(c2ccccc2)N(c2ccccc2)C1=O [phenylbutazone] | – | – | – | – | – | – | – | – | – | – | – | – | – | – | – | – | – | – | – | – | adverse effects upon the eye reported in the literature (eye [3]): conjunctivitis, toxic amblyopia, Stevens-Johnson syndrome, adhesion of lids to eyeballs, gross scarring of lids, corneal ulceration and scarring, vascularisation of the cornea, loss of vision and possible retinal haemorrhage
